Drawing on patent US9115127B2 (AMGEN INC., priority 2010, dated 2015), this text covers IC50 for 25 compounds.

Molecules are shown by their SMILES. Where a name gives a salt, the structure may show the parent alone.

In this experiment the target is T1, wild-type human ALK (cytoplasmic domain, amino acids 1058-1620, N-terminal GST fusion) (Homo sapiens, UniProt Q9UM73).
T1 construct: The cytoplasmic domain (amino acids 1058-1620) of wild-type human ALK; GST (N); made in house; host or cells: SF9 insect cells
T1 sequence (Q9UM73 1058-1620): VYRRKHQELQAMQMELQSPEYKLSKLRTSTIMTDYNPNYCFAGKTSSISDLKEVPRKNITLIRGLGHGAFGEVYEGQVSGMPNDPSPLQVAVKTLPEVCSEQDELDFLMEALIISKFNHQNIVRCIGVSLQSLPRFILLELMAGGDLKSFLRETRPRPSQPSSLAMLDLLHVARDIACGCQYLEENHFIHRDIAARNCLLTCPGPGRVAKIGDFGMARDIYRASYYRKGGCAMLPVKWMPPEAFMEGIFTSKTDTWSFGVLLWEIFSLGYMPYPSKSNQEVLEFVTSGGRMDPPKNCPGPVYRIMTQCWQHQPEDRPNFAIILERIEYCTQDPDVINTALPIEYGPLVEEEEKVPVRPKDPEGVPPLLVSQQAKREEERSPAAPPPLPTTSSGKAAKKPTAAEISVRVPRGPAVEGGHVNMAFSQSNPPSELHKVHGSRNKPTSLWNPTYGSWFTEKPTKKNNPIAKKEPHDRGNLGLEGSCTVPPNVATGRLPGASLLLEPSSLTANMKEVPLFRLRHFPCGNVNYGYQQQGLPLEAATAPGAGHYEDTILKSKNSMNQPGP
Kind of experiment: ALK Inhibition in Enzyme Assay (Lance TR-FRET kinase assay). Type of experiment: biochemical. The method in brief: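 Purified enzyme phosphorylated a biotinylated peptide substrate for 90 minutes at room temperature. Reactions were stopped with 20 mM EDTA in 50 mM Tris (pH 7.5), 100 mM NaCl, 0.05% BSA, 0.1% Tween-20. Phosphopeptide was detected by TR-FRET with SA-APC and Eu-W1024 anti-phosphotyrosine antibody PT66, excitation 320 nm.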
One may read the IC50 as the concentration needed to halve the response being measured. Higher therefore signals lower potency. Consider `CC(C)NC(=O)[C@H]1CC[C@@H](n2/c(=N/C(=O)c3ccc(F)cc3)[nH]c3cnc(OC4CCN(CC(=O)O)CC4)cc32)CC1` [Example 168, 2-(4-((E)-2-(4-Fluorobenzoylimino)-1-(cis-4-(isopropylcarbamoyl)cyclohexyl)-2,3-dihydro-1H-imidazo[4,5-c]pyridin-6-yloxy)piperidin-1-yl)acetic acid hydrochloride], for which the half-inhibitory concentration (IC50) is below 50 nM.

Compound `O=C(/N=c1\[nH]c2ccc(CN3CCOCC3)cc2n1[C@H]1CC[C@@H](C(=O)O)CC1)c1ccc(F)cc1` [Example 42, cis-4-((E)-2-(4-Fluorobenzoylimino)-6-(morpholinomethyl)-2,3-dihydro-1H-benzo[d]imidazol-1-yl)cyclohexanecarboxylic acid] gave an IC50 of 1000 to 5000 nM. As for `CCOC(=O)[C@H]1CC[C@@H](n2/c(=N/C(=O)c3cccc(F)c3)[nH]c3cnc(OCCN4CCC(C(C)(C)O)CC4)cc32)CC1` [Example 78, cis-Ethyl 4-((E)-2-(3-fluorobenzoylimino)-6-(2-(4-(2-hydroxypropan-2-yl)piperidin-1-yl)ethoxy)-2,3-dihydro-1H-imidazo[4,5-c]pyridin-1-yl)cyclohexanecarboxylate], the figure is below 50 nM; as for `CONC(=O)[C@H]1CC[C@@H](n2/c(=N/C(=O)c3ccc(F)cc3)[nH]c3ccc(CN4CCC(C(C)(C)O)CC4)cc32)CC1` [Example 213, (E)-4-Fluoro-N-(6-((4-(2-hydroxypropan-2-yl)piperidin-1-yl)methyl)-1-(cis-4-(methoxycarbamoyl)cyclohexyl)-1H-benzo[d]imidazol-2(3H)-ylidene)benzamide], below 50 nM; as for `CC(C)N(C)C(=O)[C@H]1CC[C@@H](n2/c(=N/C(=O)c3ccc(F)cc3)[nH]c3ccc(CN4CCCCC4)cc32)CC1` [Example 46, (E)-4-Fluoro-N-(1-(cis-4-(isopropyl(methyl)carbamoyl)cyclohexyl)-6-(piperidin-1-ylmethyl)-1H-benzo[d]imidazol-2(3H)-ylidene)benzamide], below 50 nM. In the case of `CC(C)NC(=O)[C@H]1CC[C@@H](n2/c(=N/C(=O)c3ccc(F)cc3)[nH]c3ccc(OCCN4CCOCC4)cc32)CC1` [Example 161, (E)-4-Fluoro-N-(1-(cis-4-(isopropylcarbamoyl)cyclohexyl)-6-(2-morpholinoethoxy)-1H-benzo[d]imidazol-2(3H)-ylidene)benzamide], the half-maximal inhibitory concentration (IC50) is below 50 nM. For `C=CCNS(=O)(=O)c1cccc(C(=O)/N=c2\[nH]c3ccc(CO)cc3n2C23CC4CC(CC(C4)C2)C3)c1` [Example 17, (E)-3-(N-Allylsulfamoyl)-N-(1-adamantyl-6-(hydroxymethyl)-1H-benzo[d]imidazol-2(3H)-ylidene)benzamide] the value was below 50 nM; for `CC(C)NC(=O)[C@H]1CC[C@@H](n2/c(=N/C(=O)c3ccc(Br)cc3)[nH]c3cnc(OCCN4CCCCC4)cc32)CC1` [Example 95, (E)-4-Bromo-N-(1-(cis-4-(isopropylcarbamoyl)cyclohexyl)-6-(2-(piperidin-1-yl)ethoxy)-1H-imidazo[4,5-c]pyridin-2(3H)-ylidene)benzamide], below 50 nM. Compound `CC(C)NC(=O)[C@H]1CC[C@@H](n2/c(=N/C(=O)c3cccc(C(F)(F)F)c3)[nH]c3ccc(CN4CCC(C(C)(C)O)CC4)cc32)CC1` [Example 147, (E)-N-(6-((4-(2-Hydroxypropan-2-yl)piperidin-1-yl)methyl)-1-(cis-4-(isopropylcarbamoyl)cyclohexyl)-1H-benzo[d]imidazol-2(3H)-ylidene)-3-(trifluoromethyl)benzamide] registered an IC50 below 50 nM. In turn, `COCCCNS(=O)(=O)c1cc(C(=O)Nc2nc3ccc(CO)cc3n2[C@H]2CC[C@@H](C(=O)OC)CC2)ccc1F` [Example 28, cis-Methyl 4-(2-(4-fluoro-3-(N-(3-methoxypropyl)sulfamoyl)benzamido)-6-(hydroxymethyl)-1H-benzo[d]imidazol-1-yl)cyclohexanecarboxylate] had an IC50 of 100 to 1000 nM. For the compound `CC(C)NC(=O)[C@H]1CC[C@@H](n2/c(=N/C(=O)c3ccc(F)cc3)[nH]c3ccc(CN4CCn5c(nnc5C(C)(C)O)C4)cc32)CC1` [Example 230, (E)-4-Fluoro-N-(6-((3-(2-hydroxypropan-2-yl)-5,6-dihydro-[1,2,4]-triazolo[4,3-a]pyrazin-7(8H)-yl)methyl)-1-(cis-4-(isopropylcarbamoyl)cyclohexyl)-1H-benzo[d]imidazol-2(3H)-ylidene)benzamide], the IC50 is below 50 nM. With `NC(=O)[C@H]1CC[C@@H](n2/c(=N/C(=O)c3ccc(F)cc3)[nH]c3ccc(CN4CCOCC4)cc32)CC1` [Example 205, (E)-N-(1-(cis-4-Carbamoylcyclohexyl)-6-(morpholinomethyl)-1H-benzo[d]imidazol-2(3H)-ylidene)-4-fluorobenzamide], the IC50 is below 50 nM. The compound `CC(C)NC(=O)[C@H]1CC[C@@H](n2/c(=N/C(=O)c3ccc(F)cc3)[nH]c3ccc(CN4CCN(S(C)(=O)=O)CC4)cc32)CC1` [Example 172, (E)-4-Fluoro-N-(1-(cis-4-(isopropylcarbamoyl)cyclohexyl)-6-((4-(methylsulfonyl)piperazin-1-yl)methyl)-1H-benzo[d]imidazol-2(3H)-ylidene)benzamide] registered an IC50 below 50 nM.

`O=C(/N=c1\[nH]c2ccc(CN3CCCCC3)cc2n1[C@H]1CC[C@@H](CO)CC1)c1ccc(F)cc1` [Example 37, (E)-4-Fluoro-N-(1-(cis-4-(hydroxymethyl)cyclohexyl)-6-(piperidin-1-ylmethyl)-1H-benzo[d]imidazol-2(3H)-ylidene)benzamide]: the 50% inhibitory concentration (IC50) lay in the range of 100 to 1000 nM.

The compound `CC(C)NC(=O)[C@H]1CC[C@@H](n2/c(=N/C(=O)c3ccc(F)cc3)[nH]c3cnc(OC4CCN(C)CC4)cc32)CC1` [Example 169, (E)-4-Fluoro-N-(1-(cis-4-(isopropylcarbamoyl)cyclohexyl)-6-(1-methylpiperidin-4-yloxy)-1H-imidazo[4,5-c]pyridin-2(3H)-ylidene)benzamide] returned an IC50 below 50 nM. In the case of `CC(C)NC(=O)[C@H]1CC[C@@H](n2c(N)nc3cnc(OCCN4CCCCC4)cc32)CC1` [Example 86, cis-4-(2-Amino-6-(2-(piperidin-1-yl)ethoxy)-1H-imidazo[4,5-c]pyridin-1-yl)-N-isopropylcyclohexanecarboxamide], the IC50 fell in the range of 5000 to 10000 nM. As for `COCCOc1cc2c(cn1)[nH]/c(=N\C(=O)c1ccc(F)cc1)n2[C@H]1CC[C@@H](C(=O)NC(C)C)CC1` [Example 159, (E)-4-Fluoro-N-(1-(cis-4-(isopropylcarbamoyl)cyclohexyl)-6-(2-methoxyethoxy)-1H-imidazo[4,5-c]pyridin-2(3H)-ylidene)benzamide], the figure is below 50 nM. `CN(CC(=O)N1CCC(n2/c(=N/C(=O)c3ccccc3)[nH]c3cnc(OCCN4CCCCC4)cc32)CC1)C(=O)OC(C)(C)C` [Example 76, (E)-tert-Butyl 2-(4-(2-(benzoylimino)-6-(2-(piperidin-1-yl)ethoxy)-2,3-dihydro-1H-imidazo[4,5-c]pyridin-1-yl)piperidin-1-yl)-2-oxoethyl(methyl)carbamate] returned an IC50 of 1000 to 5000 nM.

In turn, `CC(C)NC(=O)[C@H]1CC[C@@H](n2/c(=N/C(=O)c3ccc(F)cc3)[nH]c3ccc(Cl)cc32)CC1` [Example 219, (E)-N-(6-Chloro-1-(cis-4-(isopropylcarbamoyl)cyclohexyl)-1H-benzo[d]imidazol-2(3H)-ylidene)-4-fluorobenzamide] registered an IC50 below 50 nM.

As for `CC(C)NC(=O)[C@H]1CC[C@@H](n2/c(=N/C(=O)c3ccnnc3)[nH]c3cnc(OCCN4CCCCC4)cc32)CC1` [Example 97, (E)-N-(1-(cis-4-(Isopropylcarbamoyl)cyclohexyl)-6-(2-(piperidin-1-yl)ethoxy)-1H-imidazo[4,5-c]pyridin-2(3H)-ylidene)pyridazine-4-carboxamide], the IC50 was 50 to 100 nM. As for `CC(C)NC(=O)[C@H]1CC[C@@H](n2/c(=N/C(=O)c3ccc(F)cc3)[nH]c3cnc(OCCN4CCC(C(C)(C)O)CC4)cc32)CC1` [Example 128, (E)-4-Fluoro-N-(6-(2-(4-(2-hydroxypropan-2-yl)piperidin-1-yl)ethoxy)-1-(cis-4-(isopropylcarbamoyl)cyclohexyl)-1H-imidazo[4,5-c]pyridin-2(3H)-ylidene)benzamide], the concentration for half-maximal inhibition (IC50) is below 50 nM. As for `O=C(Nc1nc2ccc(CN3CCCCC3)cc2n1[C@H]1CC[C@@H](C(=O)O)CC1)c1ccc(F)cc1` [Example 10, cis-4-(2-(4-Fluorobenzamido)-6-(piperidin-1-ylmethyl)-1H-benzo[d]imidazol-1-yl)cyclohexanecarboxylic acid hydrochloride], the figure is 100 to 1000 nM; as for `CC(C)NC(=O)[C@H]1CC[C@@H](n2/c(=N/C(=O)c3ccc(F)cc3)[nH]c3cnc(O)cc32)CC1` [Example 162, (E)-4-Fluoro-N-(6-hydroxy-1-(cis-4-(isopropylcarbamoyl)cyclohexyl)-1H-imidazo[4,5-c]pyridin-2(3H)-ylidene)benzamide], below 50 nM.

As for `COc1cccc(C(=O)/N=c2\[nH]c3cnc(OCCN4CCCCC4)cc3n2[C@H]2CC[C@@H](C(=O)NC(C)C)CC2)c1` [Example 116, (E)-N-(1-(cis-4-(Isopropylcarbamoyl)cyclohexyl)-6-(2-(piperidin-1-yl)ethoxy)-1H-imidazo[4,5-c]pyridin-2(3H)-ylidene)-3-methoxybenzamide], the IC50 was in the range of 50 to 100 nM. For `CC(C)NC(=O)[C@H]1CC[C@@H](n2/c(=N/C(=O)c3cccc(C#N)c3)[nH]c3cnc(OCCN4CCCCC4)cc32)CC1` [Example 91, (E)-3-Cyano-N-(1-(cis-4-(isopropylcarbamoyl)cyclohexyl)-6-(2-(piperidin-1-yl)ethoxy)-1H-imidazo[4,5-c]pyridin-2(3H)-ylidene)benzamide] the value was below 50 nM.
